From PubChem BioAssay (NCI)
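Briefly, cells in 96-well plates were exposed to five compound concentrations for 48 h, and endpoints were estimated by linear interpolation. TGI denotes the concentration required for complete inhibition of growth.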

Columns and labels:
Experiment in all cases: DTP human tumour cell line panel, 48 h
786-0 renal = tested on: 786-0 renal
A549 NSCLC = tested on: A549 NSCLC
ACHN renal = tested on: ACHN renal
CCRF-CEM leukemia = tested on: CCRF-CEM leukemia
COLO 205 colon = tested on: COLO 205 colon
DLD-1 colon = tested on: DLD-1 colon
DMS 114 small cell lung = tested on: DMS 114 small cell lung
DMS 273 small cell lung = tested on: DMS 273 small cell lung
EKVX NSCLC = tested on: EKVX NSCLC
HCC-2998 colon = tested on: HCC-2998 colon
HCT-116 colon = tested on: HCT-116 colon
HCT-15 colon = tested on: HCT-15 colon
HL-60(TB) leukemia = tested on: HL-60(TB) leukemia
HOP-18 NSCLC = tested on: HOP-18 NSCLC
HOP-62 NSCLC = tested on: HOP-62 NSCLC
HOP-92 NSCLC = tested on: HOP-92 NSCLC
HT29 colon = tested on: HT29 colon
IGROV1 ovarian = tested on: IGROV1 ovarian
K-562 leukemia = tested on: K-562 leukemia
KM12 colon = tested on: KM12 colon
KM20L2 colon = tested on: KM20L2 colon
LOX IMVI melanoma = tested on: LOX IMVI melanoma
LXFL 529 NSCLC = tested on: LXFL 529 NSCLC
M14 melanoma = tested on: M14 melanoma
M19-MEL melanoma = tested on: M19-MEL melanoma
MALME-3M melanoma = tested on: MALME-3M melanoma
MOLT-4 leukemia = tested on: MOLT-4 leukemia
NCI-H226 lung = tested on: NCI-H226 lung
NCI-H23 lung = tested on: NCI-H23 lung
NCI-H460 lung = tested on: NCI-H460 lung
NCI-H522 lung = tested on: NCI-H522 lung
OVCAR-3 ovarian = tested on: OVCAR-3 ovarian
OVCAR-5 ovarian = tested on: OVCAR-5 ovarian
OVCAR-8 ovarian = tested on: OVCAR-8 ovarian
RPMI-8226 leukemia = tested on: RPMI-8226 leukemia
RXF 393 renal = tested on: RXF 393 renal
SF-268 CNS = tested on: SF-268 CNS
SF-295 CNS = tested on: SF-295 CNS
SF-539 CNS = tested on: SF-539 CNS
SK-MEL-2 melanoma = tested on: SK-MEL-2 melanoma
SK-MEL-28 melanoma = tested on: SK-MEL-28 melanoma
SK-MEL-5 melanoma = tested on: SK-MEL-5 melanoma
SK-OV-3 ovarian = tested on: SK-OV-3 ovarian
SN12C renal = tested on: SN12C renal
SNB-19 CNS = tested on: SNB-19 CNS
SNB-75 CNS = tested on: SNB-75 CNS
SNB-78 CNS = tested on: SNB-78 CNS
SR leukemia = tested on: SR leukemia
SW-620 colon = tested on: SW-620 colon
TK-10 renal = tested on: TK-10 renal
U251 CNS = tested on: U251 CNS
UACC-257 melanoma = tested on: UACC-257 melanoma
UACC-62 melanoma = tested on: UACC-62 melanoma
UO-31 renal = tested on: UO-31 renal

N#CC(C#N)=c1ccc(=C2N3CCCC3CN2C23CC4CC(CC(C4)C2)C3)cc1 (centres undefined) was tested, and the TGI (786-0 renal) was over 100 µM, the TGI (A549 NSCLC) was over 100 µM and the TGI (ACHN renal) was over 100 µM. The TGI (CCRF-CEM leukemia) was over 100 µM, the TGI (COLO 205 colon) was over 100 µM and the TGI (DLD-1 colon) was over 100 µM. For the same molecule, the TGI (DMS 114 small cell lung) was over 100 µM, the TGI (DMS 273 small cell lung) was over 100 µM and the TGI (EKVX NSCLC) was over 100 µM. The TGI (HCC-2998 colon) was over 100 µM, the TGI (HCT-116 colon) was over 100 µM and the TGI (HCT-15 colon) was over 100 µM. For the same molecule, the TGI (HL-60(TB) leukemia) was over 100 µM, the TGI (HOP-18 NSCLC) was over 100 µM and the TGI (HOP-62 NSCLC) was over 100 µM. The TGI (HOP-92 NSCLC) was over 100 µM, the TGI (HT29 colon) was over 100 µM and the TGI (IGROV1 ovarian) was over 100 µM. For the same molecule, the TGI (K-562 leukemia) was over 100 µM, the TGI (KM12 colon) was over 100 µM and the TGI (KM20L2 colon) was over 100 µM. It also gave a TGI (LOX IMVI melanoma) of over 100 µM, a TGI (LXFL 529 NSCLC) of over 100 µM and a TGI (M14 melanoma) of over 100 µM. For the same molecule, the TGI (M19-MEL melanoma) was over 100 µM, the TGI (MALME-3M melanoma) was over 100 µM and the TGI (MOLT-4 leukemia) was over 100 µM. The TGI (NCI-H226 lung) was over 100 µM, the TGI (NCI-H23 lung) was over 100 µM and the TGI (NCI-H460 lung) was over 100 µM. For the same molecule, the TGI (NCI-H522 lung) was over 100 µM, the TGI (OVCAR-3 ovarian) was over 100 µM and the TGI (OVCAR-5 ovarian) was over 100 µM. The TGI (OVCAR-8 ovarian) was over 100 µM, the TGI (RPMI-8226 leukemia) was over 100 µM and the TGI (RXF 393 renal) was over 100 µM. The TGI (SF-268 CNS) was over 100 µM, the TGI (SF-295 CNS) was over 100 µM and the TGI (SF-539 CNS) was over 100 µM. The TGI (SK-MEL-2 melanoma) was over 100 µM, the TGI (SK-MEL-28 melanoma) was over 100 µM and the TGI (SK-MEL-5 melanoma) was over 100 µM. It also gave a TGI (SK-OV-3 ovarian) of over 100 µM, a TGI (SN12C renal) of over 100 µM and a TGI (SNB-19 CNS) of over 100 µM. It also gave a TGI (SNB-75 CNS) of 78.8 µM, a TGI (SNB-78 CNS) of over 100 µM and a TGI (SR leukemia) of over 100 µM. It also gave a TGI (SW-620 colon) of over 100 µM, a TGI (TK-10 renal) of over 100 µM and a TGI (U251 CNS) of over 100 µM. The TGI (UACC-257 melanoma) was over 100 µM, the TGI (UACC-62 melanoma) was over 100 µM and the TGI (UO-31 renal) was over 100 µM.
